Source: the pKa sets of Baltruschat and Czodrowski (2020)

Details: acidic group

Structure (SMILES)	pKa
Oc1cccc2scnc12	8.77
Oc1nc2nc[nH]c2c[nH+]1	1.69
CCC1(C)CC(=O)NC1=O (configuration not stated)	9.34
O=C([O-])c1c(O)ccc2ccccc12	10.9
O=C([O-])c1ccc(O)c([N+](=O)[O-])c1	6.41
O=C(O)c1csc(Cl)c1	3.8
O=[N+]([O-])c1ccccc1/C=N\O	10.7
O=C(O)[c+]1cccccc1	3.29
O=C(O)c1ccc2cc3ccccc3cc2c1	4.18
O=C1NC(C(=O)O)CC1O (configuration not stated)	3.8
COC1=CC2CCC1(C(=O)O)CC2	4.45
CCCCCCCCc1c(-c2ccccc2)n[nH]c1O	10.2
CCc1cc(O)cc(C)c1Cl	9.6
O=C(O)c1ccc(OCc2ccccc2)cc1	4.44
O=C(O)CCCOC(=O)CCCBr	4.6
CC[NH+]1CCC[C@@H]1CNC(=O)c1c(O)c(Br)cc(Br)c1OC	5.88
CCOC(=S)NC(=O)c1ccccc1	7.46
CCOC(=O)COc1ccc(C(=O)c2ccc(O)c(C[NH3+])c2)c(Cl)c1Cl	6.38
CCn1cccc(O)c1=O	8.99
O=C(O)COc1ccccc1	3.15
CC(C)CN[N+](=O)[O-]	6.38
CC(C)=CCC(=O)O	4.6
O=C([O-])C[NH+](CCNS(=O)(=O)c1ccccc1)CC(=O)[O-]	7.82
Oc1ccc2ccnnc2c1	7.56
Cc1ccccc1[Se]CC(=O)O	3.79
N#CC(C#N)=C(C#N)Nc1cccc([N+](=O)[O-])c1	3.45

Structure (SMILES)	pKa
O=[N+]([O-])c1cccc2c[n+](CCO)ccc12	11.7
O=c1cc(-c2ccccc2)oc2cc(O)ccc12	7.39
Cc1ncc2c(c1O)C(O)OC2 (configuration not stated)	8.75
O/C(=C\c1ccccn1)c1ccccc1	11.1
O=C([O-])CCC(=O)C=C=Cc1ccccc1	13.3
CC#CC(=O)O	2.63
Oc1[nH+]cnc2ccccc12	2.12
Cc1ccc(S(N)(=O)=O)cc1	9.89
C/C=C/c1ccc2cccnc2c1O	11.3
Nc1cc2ccccc2cc1O	9.35
COc1c(C)cccc1C(=O)O	3.84
O=C([O-])CNC(=O)CNS(=O)(=O)c1ccccc1	9.65
O=C(O)c1cscn1	3.64
S=C1NCCO1	11.1
C[n+]1cccc2c(O)cccc21	6.12
O=C1C=CC(=NO)C=C1	6.36
CC=C=CC(C)(C)C(=O)O	4.58
Cn1nc(/N=N/O)nc1N	5.36
O=C(O)c1cc([N+](=O)[O-])ccc1Sc1ccccc1	3.22
O=C(Cc1ccncc1)c1ccccc1	12.7
C(CSCCc1nnn[nH]1)SCCc1nnn[nH]1	5
O=S(=O)(Nc1nccs1)c1ccccc1	5.73
O=C(O)[C@H]1[C@@H]2C=C[C@H]1CC2	4.58
CC(=O)c1ccccc1O	10.4
CCCCOC(=S)NC(C)=O	9.25
Oc1cncc2ccccc12	8.68

Structure (SMILES)	pKa
O=C(O)C[NH+](CC(=O)O)Cc1ccccc1O	2.2
C=C(C)/C=C(/C(=O)O)c1ccc([N+](=O)[O-])cc1	4.4
N#CC(C#N)=NNc1ccc([N+](=O)[O-])cc1	5.5
[NH3+]CCCCCCNC(=S)S	2.95
OC(O)=C(O)c1ccccc1	6.39
Cc1cc(=O)oc2cccc(O)c12	8.26
CC(C)(S)[C@@H](C(=O)[O-])n1ccnc1Cc1ccccc1	10.3
CC(C)C(O)C(C(=O)O)c1ccc(-c2ccccc2)cc1 (configuration not stated)	4.13
COc1cccc(=O)c(O)c1	7.24
COC(=S)C1c2ccccc2-c2ccccc21	7.4
CC(C)(C)CCC(=O)O	4.83
Oc1ccc(O)c2ccccc12	9.25
Cc1ccc([N+](C)(C)O)cc1	4.32
Cc1nonc1NS(=O)(=O)c1ccc(N)cc1	4
Nc1ccc(S(=O)(=O)Nc2ncccn2)cc1	6.42
Nc1c2[nH]cnc2nc[n+]1[O-]	9
COc1cc(S(C)=O)ccc1-c1nc2nnccc2[nH]1 (configuration not stated)	8.71
Nc1ncnc2nc[nH]c12	9.74
Cn1c(=O)c2[nH]c([N+](=O)[O-])nc2n(C)c1=O	3.58
CCOC(=O)C1CCCC1=O (configuration not stated)	10.7
CCCCOC(=O)c1ccc[n+](O)c1	0.03
O=C([O-])c1ccc(O)cc1	9.35
O=C(O)[C@@H]1O[C@H](Oc2cccc3[nH+]cccc23)[C@@H](O)[C@H](O)[C@H]1O	3.1
COC(=O)c1cccc(NC=S)c1	10.8
O=C(O)c1cc(Cl)co1	2.69

Same assay, conditions: basic group

Structure (SMILES)	pKa
Oc1cccc2scnc12	1.25
CC(=O)N(C)c1ccccn1	2.01
Nc1nc2ccccc2c2ccccc12	7.31
[NH3+]CCCCc1ccccn1	5.56
Cn1nnnc1N	1.82
Cc1cc(C)n(Cc2cc(C)n(C)n2)[nH+]1	0.6
Clc1ccc(-c2ncc(-c3ccccc3)o2)cc1	0.41
CC(C)NCC(O)c1cccc(F)c1 (configuration not stated)	9.48
O=C([O-])[C@@H]1CCC[C@H](C(=O)[O-])N1	9.92
Cc1cc(-c2ccccc2)nn(CCN2CCOCC2)c1=N	9.7
CCC(=O)OCCN(C)C	8.29
c1ccc(C2=NSC(N3CCOCC3)=NS2)cc1	8.33
Cn1cc2ccccc2n1	2.13
c1c(CN2CCNCC[NH2+]CC2)n[nH]c1CN1CCNCC[NH2+]CC1	6.8
Cc1cc(C(c2ccc(N)cc2)c2ccc(N)cc2)ccc1N	4.9
Cn1c(=S)ccc2ccccc21	-1.6
Cc1cccc(CO)n1	5.2
C1CC2CC1NN2	7.94
CCOc1ccc2[nH]c(C(C)C)nc2c1	6.17
c1ccc2c(c1)N1CCN2CC1	5.65
CN(C)/N=C(\N)CC[Si](C)(C)C	10.2
NC(=O)CCCCc1ccncc1	5.92
[O-]c1ccncn1	8.59
Cc1nc2cc(C(=O)[O-])ccc2[nH]1	6

Structure (SMILES)	pKa
OC(CN1CCOCC1)CN1CCOCC1	6.98
Nc1ccc2c(c1)Cc1cccc(O)c1-2	4.73
c1ccc2c(c1)CNCCCNCc1ccccc1OCCCO2	10
Oc1ccc2ccnnc2c1	3.31
Cc1ncc2c(c1O)C(O)OC2 (configuration not stated)	4.3
O/C(=C\c1ccccn1)c1ccccc1	4.52
C/N=c1/scc(C)n1C	9.97
Cc1ccc(-c2ncc(-c3ccc(Cl)cc3)o2)cc1	0.88
CSc1cc2ccccc2cn1	3.41
Nc1ccc(-c2ccc(/[NH+]=C/c3ccccc3O)cc2)cc1	4.75
C/C=C/c1ccc2cccnc2c1O	4.66
C[Se](C)=O	2.55
CCSC(=O)c1ccc(OC)cc1	-3.77
O=C(O)c1cscn1	2.9
C(C[NH2+]CCc1nnn[n-]1)NCCc1nnn[n-]1	6.3
COc1cnccc1C=O	4.45
CN=C(N(C)C)N(C)C	13.8
CN(C)c1cc[nH+]cc1	-7.78
COc1ccc(I)cc1C(=O)N[C@@H]1C[C@H]2CC[C@@H](C1)N2Cc1ccccc1	8.79
c1ncc(Cc2c[nH+]c[nH]2)[nH]1	5.69
CN(CCC[NH3+])CCC[NH3+]	6.45
C/C=C(/C)C(=O)O[C@H]1CC[C@@]2(C)[C@@H]3CC[C@H]4[C@]5(O)C[C@H](O)[C@@]6(O)[C@@H](CN7C[C@@H](C)CC[C@H]7[C@@]6(C)O)[C@]5(O)C[C@@]42O[C@]13O	8.85
O=C(Cc1ccncc1)c1ccccc1	4.63
CCc1cc(CC)c(OC)c(C(=O)NC[C@H]2CCCN2CC)c1[O-]	9.54

Structure (SMILES)	pKa
CN(C)CCOC(c1ccccc1)c1ccc(Br)cc1 (configuration not stated)	8.64
CN(C)CCC/N=C(\c1ccccc1)c1cccc2ccccc12	9
Nc1cccc(Br)c1	3.41
Nc1cc(C[NH3+])ccc1Cl	3.71
Oc1cncc2ccccc12	4.8
COCCNc1ccc(OC)cc1	5.02
OCCNc1nc(NCCO)nc(NCCO)n1	5.19
CCCc1c(C)[n-]n(C2CCN(C)CC2)c1=O	9.2
CC(C)CCSC(=N)c1ccccc1	8.43
O=C1CC2OCC=C3C4CC5N(CCC56c5ccccc5N1C6C24)[C@H]3S(=O)(=O)[O-] (some centres not stated)	3.2
Cc1c[nH]cn1	7.51
CC(C)(S)[C@@H](C(=O)[O-])n1ccnc1Cc1ccccc1	6.98
Cc1nc(N)c2cnn(C)c2n1	5
OCC1CC2CCN1CC2 (configuration not stated)	10.8
O=C([O-])c1ccc2ccccc2n1	4.97
COc1ccc(C(O)CNC(C)CC2=C(C)C(C)(C)CC2)cc1 (configuration not stated)	8.79
CCOC(C)=N	7.15
O=C1[C@H]2C[C@H](CN3CCCC[C@@H]23)C2=CCCCN12	7.7
COc1ccc2c(c1)NCCN2	5.26
C#CC(C)(C)N(CC)C(C)(C)C	9.6
CCCC[C@H](N)C(=O)[O-]	9.76
C[C@H]1[C@@H](N)[C@@H](C)[C@@H]([NH3+])[C@@H](C)[C@H]1N	6.73
C#CC(C)(C)NC(C)(C)C#C	6.45
Nc1ccc(S(=O)(=O)Nc2ncccn2)cc1	2

Structure (SMILES)	pKa
Nc1c2[nH]cnc2nc[n+]1[O-]	2.6
COc1cc(S(C)=O)ccc1-c1nc2nnccc2[nH]1 (configuration not stated)	3.63
Cc1cncc(C)n1	2.11
NNCCCc1ccccc1	7.2
C1CCN(CC[NH+]2CCCC2)C1	6.3
Nc1ccc2c(N)c3ccccc3nc2c1	11.5
Nc1ncnc2nc[nH]c12	4.2
CN(C)c1ncnc2c1ncn2[C@H]1O[C@@H](CO)[C@H](O)[C@@H]1O	3.65
CC(C)N/C=N/c1ccc(-c2c[nH]cn2)cc1	8.88
NC(=O)c1cc(-c2ccccc2)nnc1NCC[NH+]1CCOCC1	2.5
Nc1cnc2c(N)nc(N)nc2n1	6.3
Cc1cc(C)n(Cc2cc(C)[nH]n2)n1	3.5
SCCN(Cc1ccccc1)Cc1ccccc1	7.62
O=C1CN2CCC1CC2	7.27
COc1nc(C)cc([O-])n1	8.4
CCS(=O)(=O)c1cc(OC)c(OC)c(C(=O)N[C@@H]2C[C@H]3CC[C@@H](C2)N3Cc2ccccc2)c1	8.9
Cc1cnc2cccc([N+](=O)[O-])c2c1NCCC[NH+](C)C	6.01
N=C(N)N	13.1
CSc1ccc2ncccc2c1	4.75
Cc1cccc(C=O)n1	4.55
c1ccc2nccnc2c1	0.64
O=C([O-])[C@@H]1O[C@H](Oc2ccc3cccnc3c2)[C@@H](O)[C@H](O)[C@H]1O	5.32
NCc1ccc(Cl)cc1	9.24
